According to patent US20240410876A1, “EXTRACELLULAR VESICLE DRUG ANALYSIS FOR REAL-TIME MONITORING OF TARGETED THERAPY” (NATIONAL UNIVERSITY OF SINGAPORE, priority 2021, published 2024):
Values joined by “and” are separate entries in the source; they are usually repeats but may differ in a detail not shown here. Equal values may be shown once.

How the values were obtained:
EGFR [1] = molecular target: T1, EGFR (Homo sapiens, UniProt P00533, L858R); assay: Live-cell labeling of H3255 cells by click probes (in-gel fluorescence); format: cell-based
T1 construct: endogenous in cells; host or cells: H3255 human lung cancer cells
Experimental: In-gel fluorescence analysis of cell labeling. Cell pellets were resuspended in Pierce IP lysis buffer (Thermo Scientific) supplemented with protease inhibitor cocktail (Thermo Scientific). After lysis on ice, the lysate was centrifuged at 2000 g, 4° C. for 2 min, and the supernatant was collected and normalized to 1.5 mg/mL with PBS. 40 μL of each sample was first blocked with iodoacetamide (15 mM, Sigma) for 30 min at room temperature in the dark, followed by click reaction with either DBCO-TMR or tetrazine-TMR (25 μM, Click Chemistry Tools) at room temperature for 30 min. The sample was then boiled in LDS sample buffer at 95° C. for 5 min, and resolved by 4-12% SDS-PAGE gel. Finally, the fluorescently labeled proteins were visualized with a ChemiDoc imaging system and subsequently stained with Bio-Safe Coomassie (Bio-Rad).

H3255 cells = assay: Anti-proliferation activity (MTS assay); format: cell-based; settings: Homo sapiens, NCI-H3255; H3255 lung cancer cells, 72 hours
Experimental: MTS assay. […] Cell viability was assessed using the [3-(4,5-dimethylthiazol-2-yl)-5-(3-carboxymethoxyphenyl)-2-(4-sulfophenyl)-2H-tetrazolium inner salt (MTS) cell proliferation assay (Promega).

EGFR [2] = assay: Multiplexed ExoSCOPE: drug occupancy in EVs secreted by drug-treated cells; format: cell-based, human; settings: heterogeneous cell mixture, 1 μM, within 24 hours, CD63/EGFR/EpCAM/MUC1 vesicle subpopulations
Experimental: ExoSCOPE assay. We developed the ExoSCOPE assay for the direct analysis of both marker composition and drug occupancy in EVs. Samples were diluted 1:1 in PBS before ExoSCOPE analyses. We treated the diluted samples with click probe A3 (tagged with TCO, 100 nM) at 37° C. for 30 min before analysis. […] To measure EV marker composition (for a single marker analysis), we incubated the samples on antibody-functionalized ExoSCOPE sensors (1 μL, 10 min, room temperature), to achieve marker-specific EV capture. As a control experiment, sensors functionalized with IgG isotope control antibodies were used. Relative spectral changes (plasmonic signals) were measured to determine marker-specific EV binding. To measure EV drug occupancy, we used the click probes within sensor-bound vesicles to achieve enzymatic amplification. Specifically, we utilized the probes' click handles (TCO) to recruit tetrazine-conjugated horseradish peroxidase (HRP), which catalyzed in situ, enzymatic conversion of the soluble substrate (3,3′-diaminobenzidine, DAB) to form local, insoluble polymeric products on labeled vesicles; these insoluble deposits acted as optical products to amplify the plasmonic signals. […] Relative spectral changes were measured to determine probe labeling. […]

T1 sequence (P00533 25-1210 L858R): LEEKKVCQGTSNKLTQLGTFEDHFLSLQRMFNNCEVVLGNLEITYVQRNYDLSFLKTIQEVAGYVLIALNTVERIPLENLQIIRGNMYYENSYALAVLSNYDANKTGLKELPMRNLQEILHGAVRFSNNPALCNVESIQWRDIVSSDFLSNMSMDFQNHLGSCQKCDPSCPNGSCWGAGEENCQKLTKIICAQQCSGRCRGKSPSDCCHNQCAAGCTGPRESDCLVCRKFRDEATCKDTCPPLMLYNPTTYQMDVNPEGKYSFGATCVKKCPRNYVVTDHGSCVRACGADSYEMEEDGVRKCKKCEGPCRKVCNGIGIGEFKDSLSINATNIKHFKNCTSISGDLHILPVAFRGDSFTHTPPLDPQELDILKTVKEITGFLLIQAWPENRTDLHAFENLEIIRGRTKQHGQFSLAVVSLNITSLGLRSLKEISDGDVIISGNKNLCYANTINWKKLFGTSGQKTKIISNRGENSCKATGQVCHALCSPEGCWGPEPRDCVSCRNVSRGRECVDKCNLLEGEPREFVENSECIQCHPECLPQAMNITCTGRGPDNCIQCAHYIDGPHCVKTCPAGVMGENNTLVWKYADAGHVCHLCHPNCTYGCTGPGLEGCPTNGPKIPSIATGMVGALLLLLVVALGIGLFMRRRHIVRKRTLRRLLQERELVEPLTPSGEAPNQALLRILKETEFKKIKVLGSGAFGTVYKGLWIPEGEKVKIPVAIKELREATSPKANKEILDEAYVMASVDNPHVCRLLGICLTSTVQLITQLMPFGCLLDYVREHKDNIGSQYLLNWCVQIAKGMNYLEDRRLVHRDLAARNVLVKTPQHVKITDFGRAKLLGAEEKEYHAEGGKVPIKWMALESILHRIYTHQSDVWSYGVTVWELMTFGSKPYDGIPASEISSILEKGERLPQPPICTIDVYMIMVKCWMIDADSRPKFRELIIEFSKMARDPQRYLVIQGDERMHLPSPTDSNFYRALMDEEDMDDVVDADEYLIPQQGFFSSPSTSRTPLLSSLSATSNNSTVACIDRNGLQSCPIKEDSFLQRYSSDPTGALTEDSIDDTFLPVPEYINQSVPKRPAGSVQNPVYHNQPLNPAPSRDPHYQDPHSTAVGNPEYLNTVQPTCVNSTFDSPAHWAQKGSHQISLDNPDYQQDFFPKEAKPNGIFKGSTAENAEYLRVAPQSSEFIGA

signal-to-noise ratio of EGFR labeling among the click probes (EGFR [1]; 100 nM probe, with or without afatinib 1 μM) | incubation time to maximal labeling (EGFR [1]; probe 100 nM, H3255 cells) [h] | live-cell EGFR labeling efficiency (EGFR [1]; probe 100 nM, H3255 cells, 15 min incubation) | GI50 (H3255 cells) [nM] | SMILES | time-dependent change of ξEV (EGFR [2])
best signal-to-noise ratio | 1 | > 90% and 90% | 1.8 | CN(C)C/C=C/C(=O)Nc1cc2c(Nc3ccc(F)c(Cl)c3)ncnc2cc1OCCCNC(=O)CNC(=O)OC1CC/C=C/CCC1 (stereo not drawn) [probe A3, (E)-cyclooct-4-en-1-yl (2-((3-((4-((3-chloro-4-fluorophenyl)amino)-6-((E)-4-(dimethylamino)but-2-enamido)quinazolin-7-yl)oxy)propyl)amino)-2-oxoethyl)carbamate] | 
 |  |  | 0.6 | CN(C)C/C=C/C(=O)Nc1cc2c(Nc3ccc(F)c(Cl)c3)ncnc2cc1O[C@H]1CCOC1 [afatinib, reference compound] | 
 |  |  |  | C#Cc1cccc(Nc2ncnc3cc(OCCOC)c(OCCOC)cc23)c1 [erlotinib] | increased
